This is an account of results in patent US11744815B1, “Pharmaceutical composition of dimethylguanidino valeric acid and plant flavonoids for treating chronic inflammatory diseases and cancer” (priority 2022, dated 2023).

In one experiment the test system is Jurkat T cells. The experiment in a line: Mitochondrial ROS by flow cytometry using CellROX Green, Jurkat T cells. It counts as cell-based, human. The following applies: for induction of ROS: Jurkat T cells, kaempferol 5 μM, quercetin 25 μM, daidzein 5 μM. On the procedure:
The invention further investigated how DMGV suppresses cell proliferation and survival.
In order to locate the cellular compartment of ROS generated by DMGV, Jurkat T cells were incubated with the mitochondria-specific ROS inhibitor MitoQ (100 nM) for 15 min before stimulation with DMGV (504) for ROS measurement.
(§1) As certain flavonoids are known to active MCU, we tested whether DMGV and the flavonoids activate MCU in the same manner. Jurkat T cells were treated with the flavonoids [kaempferol (5 μM), quercetin (25 μM), or daidzein (5 μM)]. […] The molecular docking simulator SwissDock predicted that the flavonoids and DMGV bind to MCU in a same pocket.

The next experiment has as its system human T cells. The experiment in a line: Human T cell survival by flow cytometry after 4 days. Type of experiment: cell-based.
Experiment [1] concerns AGXT2^+/+ and AGXT2^−/− T cells. The experiment in a line: Survival of AGXT2^+/+ and AGXT2^−/− T cells, 4 days, flow cytometry. Type of experiment: cell-based, mice. The following applies: MitoQ 100 nM with DMGV 504, 4 days. How it is done:
To investigate the role of AGXT2 and DMGV in T cell survival, AGXT2^+/+ and AGXT2^−/− T cells were stimulated with the indicated compounds (ADMA: 10 μM, SDMA: 10 μM, DMGV: 504, MitoQ: 100 nM) for 4 days and the survival rate was measured by flow cytometry.

The test system of another experiment is AGXT2^−/− T cells. As to the kind of experiment: ROS induction in AGXT2-KO T cells. It counts as cell-based, mice. The following applies: ADMA 10 μM, SDMA 10 μM, DMGV (504). On the procedure: DMGV is converted from asymmetric dimethylarginine (ADMA) or symmetric dimethylarginine (SDMA) by alanine-glyoxylate aminotransferase 2 (AGXT2) in the mitochondria whereas ADMA or SDMA is metabolized to L-citrulline in the cytosol as shown in FIG. 6A. In order to investigate the role of DMGV in T cells, we generated AGXT2-KO (AGXT2^−/−) mice using Crispr/Cas9 technology according to FIG. 6B. Neither ADMA (10 μM) or SDMA (10 μM) induce ROS in AGXT2^−/− T cells but DMGV (504) still does, an evidence that SDMA or ADMA induces ROS only when they are converted to DMGV (FIG. 6C).

In another experiment the target is T1, MCU (Homo sapiens, UniProt Q8NE86).
T1 construct: endogenous in cells; host or cells: Jurkat T cells
T1 sequence (Q8NE86 51-351): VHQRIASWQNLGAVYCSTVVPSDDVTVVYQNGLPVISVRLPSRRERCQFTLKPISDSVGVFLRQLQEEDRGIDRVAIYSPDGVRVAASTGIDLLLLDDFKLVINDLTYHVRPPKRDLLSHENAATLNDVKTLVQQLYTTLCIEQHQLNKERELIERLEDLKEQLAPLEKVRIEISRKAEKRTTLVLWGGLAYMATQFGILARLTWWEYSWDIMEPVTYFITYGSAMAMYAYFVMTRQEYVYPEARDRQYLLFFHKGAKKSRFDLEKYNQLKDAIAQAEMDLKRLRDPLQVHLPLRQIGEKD
T1 sequence (Q9H4I9 48-107 partner limits assumed): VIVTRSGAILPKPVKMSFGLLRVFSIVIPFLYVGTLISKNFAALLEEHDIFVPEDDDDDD
As to the kind of experiment: Mitochondrial calcium influx in Jurkat cells expressing Mito-GEM-GECO. Type of experiment: cell-based. The following applies: for induction of mitochondrial calcium: Jurkat T cells, kaempferol 5 μM, quercetin 25 μM, daidzein 5 μM. How it is done:
(§2) As a sudden influx of calcium to the mitochondria can cause ROS induction, we tested whether DMGV regulates calcium flux to induce ROS. Calcium flux was measured by flow cytometry using the calcium indicator Fluo-8. While stimulation of T cell receptor (TCR) by a stimulatory antibody triggered calcium release from ER (efflux), which in turn induced calcium influx from the outside to cytosol (influx). […] Because of the close proximity between ER and mitochondria, calcium efflux from ER leads to calcium import to the mitochondria, which can be mediated by MCU.
as §1

Experiment [2] concerns MCU mutants deleted of Ile127, V135, or Ile127 and V135. As to the kind of experiment: MCU deletion mutants transfected to MCU KO cells. Type of experiment: cell-based. The following applies: for dependence of MCU activation on Ile127: MCU mutant deleted of Ile127 in MCU KO cells; for dependence of MCU activation on V135: MCU mutant deleted of V135 in MCU KO cells. The source says: To test whether Ile127 and V135 are important for these compounds to activate MCU, we generated 3 different MCU mutants deleted of Ile127, V135, or Ile127 and V135. These MCU mutants were transfected to MCU KO cells and stimulated with kaempferol, daidzein, quercetin, or DMGV.

The next experiment concerns calcium flux. The experiment in a line: Calcium flux by flow cytometry using Fluo-8. Type of experiment: cell-based. The following applies: Ru360. On the procedure:
as §2

In the next experiment the test system is T cell. The experiment in a line: ROS induction and T cell proliferation with selective iNOS inhibitor. It counts as cell-based.

Entries after “also recorded” stand apart in the source; their conditions may differ.

Take `COC1=C(OC)C(=O)C(CCCCCCCCCC[P+](c2ccccc2)(c2ccccc2)c2ccccc2)=C(C)C1=O` [MitoQ, reference compound]: the “effect on DMGV-induced ROS production” value in the experiment on Jurkat T cells (MitoQ (100 nM) 15 min before stimulation with DMGV (504)) is recorded as “completely inhibited ROS production”. For the same molecule, the “effect on DMGV-induced T cell death” value in the experiment with human T cells (human T cells, DMGV with or without MitoQ, 4 days) was “rescued T cells from DMGV-induced cell death”. In experiment [1], the “effect on DMGV-induced inhibition of AGXT2^+/+ T cells” value is “rescued AGXT2^+/+ T cells from DMGV-induced inhibition” and the “effect on DMGV-induced rescue of AGXT2^−/− T cells” value was “inhibited DMGV-induced rescue of AGXT2^−/− T cells”.

For the molecule `CN(C)C(N)=NCCC[C@H](N)C(=O)O` [ADMA, asymmetric dimethylarginine], the “ROS induction in AGXT2^−/− T cells” value in the experiment with AGXT2^−/− T cells is reported as “do not induce ROS”.

On to `O=c1c(-c2ccc(O)cc2)coc2cc(O)ccc12` [daidzein, 7-hydroxy-3-(4-hydroxyphenyl)-4H-chromen-4-one], for which the “induction of ROS” value in the experiment on Jurkat T cells is reported as “induced mitochondrial calcium as wells ROS”. For the same molecule, the “induction of mitochondrial calcium” value at MCU is given as “induced mitochondrial calcium”. Besides, in experiment [2], the “dependence of MCU activation on Ile127” value is reported as “independent on it” and the “dependence of MCU activation on V135” value is given as “mostly dependent on V135”.

Take Ru360 [reference compound]: in the experiment on calcium flux, the “effect on TCR-induced calcium flux” value was “not affected”. The “effect on DMGV-induced calcium influx to the mitochondria” value on MCU (Ru360 (104)) is “completely inhibited”.

With `O=c1c(O)c(-c2ccc(O)cc2)oc2cc(O)cc(O)c12` [kaempferol, 3,5,7-Trihydroxy-2-(4-hydroxyphenyl)-4H-chromen-4-one], in the experiment on Jurkat T cells, the “induction of ROS” value is given as “induced mitochondrial calcium as wells ROS”. Also, in the experiment with human T cells (activated human T cells), the “survival of activated human T cells” value is listed as “suppressed survival of activated human T cells via mitochondrial ROS”. Further, the “induction of mitochondrial calcium” value on MCU was “induced mitochondrial calcium”. Also, in experiment [2], the “dependence of MCU activation on Ile127” value is listed as “independent on it” and the “dependence of MCU activation on V135” value is “totally dependent on it; also recorded: mostly dependent on V135”.

As for `CN=C(NC)NCCC[C@H](N)C(=O)O` [SDMA, symmetric dimethylarginine], in the experiment with AGXT2^−/− T cells, the “ROS induction in AGXT2^−/− T cells” value is “do not induce ROS”.

With `CC(=N)NCCCC[C@H](N)C(=O)O` [N6-(1-iminoethyl)-L-lysine], in the experiment on T cell, the ROS induction entry is recorded as “does not induce ROS” and the T cell proliferation result is recorded as “does not induce ROS or inhibit T cell proliferation”.
